# Tests used:
# [1] = Viscosity measurement of the synthesized compound; format: physicochemical; settings: shear rate: 92 1/s
# Text: The results of measuring the ^1H-NMR spectrum and viscosity of the resulting compound were as shown below.
# Viscosity: 0.48 Pa·s (shear rate: 92 1/s)
# [2] = Liquid crystal structure analysis by small-angle X-ray scattering (SAXS); format: physicochemical; settings: atmospheric pressure
# Procedure: The liquid crystal structure of the aforementioned gelatinous composition was analyzed by small-angle X-ray scattering (SAXS) using the NANO Viewer nanoscale X-ray structural evaluation system (Rigaku). As a result of measuring the aforementioned gelatinous composition packed into pinhole slits under atmospheric pressure, a graph of SAXS intensity distribution (FIG. 3(1)) and peak search results (FIG. 3(2)) were obtained.
# The liquid crystal structures of the aforementioned gelatinous compositions were analyzed by small-angle X-ray scattering (SAXS) using the SmartLab high-luminance in-plane X-ray diffraction system (Rigaku). The aforementioned gelatinous composition packed into pinhole slits were measured under atmospheric pressure.
# Liquid crystal structure of the aforementioned emulsion was analyzed by small-angle X-ray scattering (SAXS) using the NANO Viewer nanoscale X-ray structural evaluation system (Rigaku). As a result of introducing the emulsion into a capillary tube under atmospheric pressure and measuring with the system at reduced pressure (although the sample per se was at atmospheric pressure), a graph of SAXS intensity distribution (FIG. 5(1)) and peak search results (FIG. 5(2)) were obtained.
# The aforementioned emulsion was measured by SAXS in the same manner as Example 4. […]
# [3] = Formation of gelatinous composition on mixing with physiological saline; format: physicochemical; settings: 50% by weight or more of physiological saline, separated saline removed
# Procedure: An aqueous medium in the form of a 50% by weight or more of physiological saline was added to mono-O-(5,9,13-trimethyltetradeca-4-enoyl)glycerol followed by carrying out a mixing procedure and removing the separated physiological saline.
# Mono-O-(5,9,13-trimethyltetradeca-4-enoyl)glycerol and a contrast agent in the form of Lipiodol were mixed at mixing ratios of 10:5, 70:30, 10:3, 80:20, 10:2, 90:10 and. 10:1. An aqueous medium in the form of 50% by weight or more of physiological saline was added to each mixture followed by carrying out a mixing procedure and removing the separated physiological saline to respectively obtain mixtures.
# [4] = Stability of liquid crystal gelatinous composition in human serum; format: in vitro ADME
# Procedure: Approximately 100 μL of mono-O-(5,9,13-trimethyltetradeca-4-enoyl)glycerol or approximately 100 μL each of mixed solutions of mono-O-(5,9,13-trimethyltetradeca-4-enoyl)glycerol and Lipiodol at a weight ratio of 10:1, 10:2 or 10:3 were respectively added to vials containing 2 mL of human serum (Human OTC Serum, Access Biologicals). After gently shaking each vial to cause the formation of a gelatinous composition, the vials were allowed to stand undisturbed in a water bath at 37° C. followed by observing immediately thereafter, 10 hours later and 24 hours later.
# FIG. 13 depicts captured images indicating changes over time in samples consisting of approximately 100 μL of mono-O-(5,9,13-trimethyltetradeca-4-enoyl)glycerol.
compound,measurement,setting,value
"CC(=CCCC(=O)OCC(O)CO)CCCC(C)CCCC(C)C (stereo not drawn) [Example 1, Mono-O-(5,9,13-trimethyltetradeca-4-enoyl)glycerol]",Viscosity,[1],0.48 Pa·s
same,Liquid crystal structure (SAXS),[2],inverse hexagonal liquid crystal
same,Appearance of composition after mixing with physiological saline,[3],"cloudy to colorless, clear gel"
same,Change of human serum with passage of time,"[4]; approx. 100 μL in 2 mL human serum, 37° C., up to 24 hours",gradually became cloudy
same,Change of gelatinous composition in distilled water instead of human serum,"[4]; distilled water, within 24 hours",no change in the gelatinous composition
same,Observation in human serum 10 hours after addition,"[4]; human serum, 37° C., 10 hours",Cloudiness can be seen to have progressed
same,Observation in human serum 24 hours after addition,"[4]; human serum, 37° C., 24 hours","Cloudiness had progressed even further, although the gelatinous composition remained"
same,Main eluted components by TLC analysis,"[4]; human serum, 37° C., 24 hours after addition","mono-O-(5,9,13-trimethyltetradeca-4-enoyl)glycerol and (5,9,13-trimethyl-4-tetradecanoic)carboxylate obtained as a result of hydrolysis"
same,Observation in human serum immediately after addition,"[4]; human serum, 37° C., immediately after addition",a gelatinous composition formed and the human serum remained clear
